Assay results as given in patent publication US12685742B2, “Application of stachyose in preparation of drug for treating castration-resistant prostate cancer” (priority 2021, dated 2026).

Tests used:
L-DTP (EPI) cells = assay: CCK8 cell survival and CI value (Calcusyn) in drug-tolerant L-DTP (EPI) cells; format: cell-based; conditions: L-DTP (EPI) cells produced after continuous EPI for 9 days
Excerpt: (§1) Finally, Calcusyn software was used for calculating a CI value in L-DTP cells.

LNCaP cells = assay: Production of DTP/DTEP cells from LNCaP cells by EPI and Enza, cell counting; format: cell-based; conditions: 1×10^6 LNCaP cells seeded, one value given for EPI and Enza; for number of LNCaP-DTP cells as percentage of the initial seed cells: 9 days drug treatment; for number of LNCaP-DTEP cells as percentage of the initial seed cells: 33 days drug treatment
Excerpt: In the period, for replacement, a fresh drug-containing medium was used every three days for culture, some cells (DTP cells) were collected for subsequent experiments after 9 days, and the remaining cells continued to be treated with drugs. In the period, for replacement, a fresh drug-containing medium was used every three days for culture, and DTEP cells were collected after 33 days for subsequent experiments. After the DTP and DTEP cells were produced, the cells were digested and counted to calculate the percentage of the cells in 1×10^6 cells. The collected NC, DTP and DTEP cells were used for subsequent Western Blot experiments: the three groups of cells were subjected to cell lysis, protein extraction and quantification, SDS-PAGE gel electrophoresis, membrane transfer, blocking, primary antibody incubation, secondary antibody incubation and development, then, the expression changes of AR-FL and its related target proteins and AR-Vs and its related target proteins were observed, and the expression changes of cell cycle-related proteins were observed. Flow cytometry: dead cells were stained by a PI-stained cycle kit, and cell cycle changes were determined by a flow cytometry.

PRDX5 = PRDX5 immunohistochemistry of prostate tissue slices, C-MYC-over-expressed prostate cancer mouse model; format: in vivo, mice; conditions: 30 d after drug tolerance relapse, immunohistochemical positive cells
Excerpt: A C-MYC (Hi-Myc)-over-expressed spontaneous prostate cancer mouse model was constructed, and at 4 months, the mice developed mPIN/Cancer transition. […] Then, the necks of some mice were severed, and the prostate cancers of the mice were taken, photographed and weighed. […] Then, the necks of the mice were severed, and the prostate cancers of the mice were taken, photographed, weighed and subjected to experiments including immunohistochemistry.

L-DTP (Enza) cells = assay: CCK8 cell survival and CI value (Calcusyn) in drug-tolerant L-DTP (Enza) cells; format: cell-based; conditions: L-DTP (Enza) cells produced after continuous Enza for 9 days
Excerpt: as §1

[1] = system: C-MYC-over-expressed prostate cancer mouse model; assay: C-MYC (Hi-Myc)-over-expressed spontaneous prostate cancer mouse model, prostate weight and HE staining; format: in vivo, mice
Experimental: A C-MYC (Hi-Myc)-over-expressed spontaneous prostate cancer mouse model was constructed, and at 4 months, the mice developed mPIN/Cancer transition. At the moment, the mice were randomly divided into an NC control group (intragastrical administration with solvents) and an Enza administration group. Then, intragastrical administration was performed every three days, and Enza administration was performed at 10 mg/Kg for a total of 30 days. Then, the necks of some mice were severed, and the prostate cancers of the mice were taken, photographed and weighed. […] Then, mice (mice aged 6 months) were randomly divided into: an NC control group (intragastrical administration with solvents all the time), an Enza single-drug group 1, an Enza single-drug group 2, a Stac single-drug group 1, a Stac single-drug group 2 and an Enza and Stac combination group, the corresponding administration treatment was performed, and all mice were intragastrically administered once every three days. The dosage of Enza in the Enza single-drug group 1 was kept at 10 mg/Kg each time, the dosage of Enza in the Enza single-drug group 2 was kept at 90 mg/Kg each time, the dosage of Stac in the Stac single-drug group 1 was kept at 80 mg/Kg each time, the dosage of Stac in the Stac single-drug group 2 was kept at 90 mg/Kg each time, the dosages of Enza and Stac in the Enza and Stac combination group were kept at 10 mg/Kg and 80 mg/Kg each time, and the administration was performed for a total of 30 days. Then, the necks of the mice were severed, and the prostate cancers of the mice were taken, photographed, weighed and subjected to experiments including immunohistochemistry.

AR = AR immunohistochemistry of prostate tissue slices, C-MYC-over-expressed prostate cancer mouse model; format: in vivo, mice; conditions: 30 d after drug tolerance relapse, immunohistochemical positive cells
Excerpt: Then, the necks of some mice were severed, and the prostate cancers of the mice were taken, photographed and weighed. […] Then, the necks of the mice were severed, and the prostate cancers of the mice were taken, photographed, weighed and subjected to experiments including immunohistochemistry.

Compound	inhibition rate (L-DTP (EPI) cells)	number of LNCaP-DTP cells as percentage of the initial seed cells (LNCaP cells) [%]	number of LNCaP-DTEP cells as percentage of the initial seed cells (LNCaP cells) [%]	PRDX5 expression/% (PRDX5; Enza 10 mg/Kg) [%]	PRDX5 expression/% (PRDX5; Enza 90 mg/Kg) [%]	inhibition rate (L-DTP (Enza) cells)	prostate weight compared with NC control group ([1]; Enza 10 mg/Kg intragastric every three days, 30 days, from 4 months of age)	Average of prostate weights of mice ([1]; Enza 10 mg/Kg, 30 d of administration after drug tolerance relapse, intragastric every three days) [mg]	Average of prostate weights of mice ([1]; Enza 90 mg/Kg, 30 d of administration after drug tolerance relapse, intragastric every three days) [mg]	Average of prostate weights of mice ([1]; continued Enza administration, after 90 days, drug tolerance relapse (NC control 98.2 mg)) [mg]	Average of prostate weights of mice ([1]; continuous Enza 10 mg/Kg intragastric every three days, 30 days (NC control 88.7 mg)) [mg]	PRDX5 expression/% (PRDX5; Stac 80 mg/Kg) [%]	PRDX5 expression/% (PRDX5; Stac 90 mg/Kg) [%]	Average of prostate weights of mice ([1]; Stac 80 mg/Kg, 30 d of administration after drug tolerance relapse, intragastric every three days) [mg]	Average of prostate weights of mice ([1]; Stac 90 mg/Kg, 30 d of administration after drug tolerance relapse, intragastric every three days) [mg]	treatment effect of single use after drug tolerance (prostate weight) ([1]; single use of Stac compared with single use of Enza, after drug tolerance relapse)	AR expression/% (AR; Stac 80 mg/Kg) [%]	AR expression/% (AR; Stac 90 mg/Kg) [%]
CC(C)(c1ccc(OCC(O)CO)cc1)c1ccc(OCC(O)CCl)cc1 (stereo not drawn) [EPI, EPI-001]	no obvious inhibiting effect	103.11	110.92	–	–	–	–	–	–	–	–	–	–	–	–	–	–	–
CNC(=O)c1ccc(N2C(=S)N(c3ccc(C#N)c(C(F)(F)F)c3)C(=O)C2(C)C)cc1F [Enza, Enzalutamide]	–	103.11	110.92	78.4	80.0	no obvious inhibiting effect	reduced by half	54.42	53.83	77.1	43.9	–	–	–	–	–	–	–
OC[C@H]1O[C@H](OC[C@H]2O[C@H](OC[C@H]3O[C@H](O[C@]4(CO)O[C@H](CO)[C@@H](O)[C@@H]4O)[C@H](O)[C@@H](O)[C@@H]3O)[C@H](O)[C@@H](O)[C@H]2O)[C@H](O)[C@@H](O)[C@H]1O [Stac, Stachyose]	67.48%	–	–	–	–	62.47%	–	–	–	–	–	68.2	60.9	50.86	47.50	better than that of the single use of Enza	61.5	57.4
